Source: patent US7005537B2, “Production of esters” (ExxonMobil Chemical Patents Inc., priority 1999, dated 2006)

What was measured:
Format in all cases: physicochemical
Fluid solvent properties = test: Fluid solvent properties
Description: One of ordinary skill in the art can readily determine the flash point of a fluid or blend (e.g., ASTM D92-78).

[1] = Stability of solvent to acid catalyst (pTSA) in acrylic solvent system, GC; details: for Wt. % of Solvent At One Week Decomposition Period / Wt. % of Solvent At Three Week Decomposition Period: 0.5 wt % pTSA, 50° C., nitrogen, 100 at start of test
Procedure: Acrylic solvent systems were prepared to test the stability of methyl pivalate to acid catalysts, which are commonly present in coating compositions. The formulations contained 29.9 wt % MP, 28.7 wt % pentyl acetate, 20.2 wt % n-butyl acetate, 16.1 wt % n-butyl alcohol, 3.6 wt % methyl ethyl ketone, 1.5 wt % isopropyl alcohol. 2 wt % toluene as an internal standard. The latter materials were purchased from Aldrich Chemical Co.
Para toluene sulfonic acid (pTSA) was added to the above formulation (again, pTSA was purchased from Aldrich Chemical Co.), in the amount of 0.5 wt %. The solutions were sealed and placed in an oven at 50° C. under a nitrogen atmosphere. Samples were withdrawn at intervals for testing. The content of methyl pivalate was monitored over time by gas chromatographic analysis using an HP 5890 gas chromatograph. In a parallel experiment an equal amount of tert butyl acetate was used instead of methyl pivalate. The results are shown below in Table 7 (all percentages are by weight).

Reid Vapor Pressure = test: Reid Vapor Pressure
Description: The invention also includes producing a gasoline fuel containing an ester for use in internal combustion engines, wherein the ester has a Reid Vapor Pressure less than about 4 pounds per square inch. An important factor in determining a compound's ozone formation potential includes the compound's vapor pressure. Compounds with relatively high vapor pressures are more likely to volatilize into the atmosphere from open sources. Potential open sources include, for example, sources from production, distribution, storage and/or combustion of fuels containing oxygenates. The C7 to C14 esters according to the invention are expected to have low vapor pressures in comparison to MTBE and some other oxygenates. Preferably, the esters have a RVP less than about 3.5 psi. More preferably, less than about 3.0 or 2.0 psi. For example, Methyl Pivalate has a Reid Vapor Pressure of about 1.6 psi.

SMILES | Hansen Solubility Parameter H-Bonding (Fluid solvent properties) | Hansen Solubility Parameter Nonpolar (Fluid solvent properties) | Hansen Solubility Parameter Polar (Fluid solvent properties) | Hansen Solubility Parameter Total (Fluid solvent properties) | Surface Tension (Fluid solvent properties) | stability to acid catalysts (in words) [1] | Wt. % of Solvent At One Week Decomposition Period [1] [Wt. %] | Wt. % of Solvent At Three Week Decomposition Period [1] [Wt. %] | Flash Point (Fluid solvent properties) [°C] | Reid Vapor Pressure (Reid Vapor Pressure)
CC(C)=O [Acetone] | 3.4 | 7.6 | 5.1 | 9.2 | 22.3 |  |  |  |  | 
COC(=O)C(C)(C)C [Methyl Pivalate, methyl pivalate (methyl 1,1,1-trimethyl acetate)] |  |  |  |  | 23.8 | more stable to acid catalysts than is t-butyl acetate | 88.0 | 65.1 | 7 | about 1.6 psi
CC(=O)OC(C)(C)C [t-butyl acetate, tertiary butyl acetate] |  |  |  |  |  | not inert with respect to acids | 65.9 | 24.1 |  | 
